Results on six compounds are retold here after patent publication US5723576A, “Thrombin inhibitors, the preparation thereof and the use thereof for therapeutical, prophylactic and diagnostic applications” (Development Biotechnological Processes S.N.C., priority 1993, dated 1998).

Data set [1] can be described thus: In vitro resistance of the peptides to hydrolysis by plasma proteases. Type of data set: in vitro ADME. Particulars: human plasma from healthy donors, 37° C.; read-out: τp: halving time of the inhibitor concentration in human plasma. The protocol: (§1) The resistance of the compounds of the present invention versus plasmatic proteases was evaluated in vitro in two groups of tests. In the first one, the resistance to proteolysis of thrombin itself was tested incubating the claimed compounds in the presence of thrombin and analysing the mixture at different times. In the second one, the claimed compounds were incubated in plasma of healthy volunteers and, after filtration of the plasma proteins, the supernatants were analyzed by HPLC and capillary electrophoresis.
In vitro determination of the peptides resistance to hydrolysis by plasma proteases.
[…] of hirunorm-I […], hirunorm-II (569 μg), hirunorm-III (585 μg), were separately incubated with 1600 μL of human plasma from heal thy donors at 37° C. for different times. 50 μL aliquots were added with 200 μL of 100 mN H3 PO4. The supernatants were analyzed at pre-set times by HPLC on a Vydac C18 0.46×25 cm column with a straight acetonitrile gradient containing 0.1% (v/v) of trifluoroacetic acid (phase B) against 0.1% (v/v) aqueous trifluoroacetic acid (phase A), from 5 to 70% in B in 35 min at a flow rate of 1 mL/min, with detection at 210 nm. The eluted peaks were collected and analyzed by capillary electrophoresis on a […]×60 cm fused silica Waters capillary, fitted with a UV detector at 214 nm. The analyses were carried out at a constant voltage of 18 KV, using a buffer 100 mN acid phosphoric for 25 min. The eluted peaks were then analyzed by means of Fab mass spectrometry.
(§2) ^.sctn. The factors tt and tp are the halving times (min) o
(§3) the inhibitor concentrations in the presence of equimolar amounts of
(§4) thrombin, respectively both alone and in human plasma.

The target of data set [2] is T1, human a-thrombin (Homo sapiens, UniProt P00734).
T1 construct: human a-thrombin
Kind of data set: In vitro resistance of the peptides to enzyme hydrolysis by thrombin. Format: in vitro ADME. Particulars: Tris/HCl buffer pH 7.8, 37° C. The procedure:
as §1
(§5) In vitro determination of the peptide resistance to enzyme hydrolysis by thrombin.
(§6) 97.2 nmol of hirunorm-I (286 μg), hirunorm-II (285 μg), hirunorm-III (293 μg), were incubated separately with 0.972 nmol of human a-thrombin (35 μg, 3110 Units NIH/mg) in 800 μL of 0.05M Tris/HCl buffer, 0.1M NaCl at pH-7.8 and a temperature of 37° C. 50 μL Aliquots were diluted with 200 μL of 100 mN H3 PO4 and analyzed at pre-set times by capillary electrophoresis on a […] silica Waters capillary, using a Waters Quanta 4000 apparatus fitted with an UV detection at 214 nm. The analyses were carried out at a constant voltage of 18 KV, using a 100 mN phosphoric acid buffer for 25 min. The eluted peaks were collected and analyzed by Fab mass spectrometry.
as §2, §3, §4

Data set [3] deals with T2, thrombin (Homo sapiens, UniProt P00734). As to the kind of experiment: Inhibition of thrombin-mediated hydrolysis of Chromozym TH (Ki). Type of data set: biochemical. Particulars: read-out: Ki: hydrolysis inhibition constant of a chromogenic substrate. The protocol:
Moreover, the efficacy of the products of the present invention was also evaluated determining the inhibition constants Ki versus thrombin, using chromogenic substrates.
The inhibition of the hydrolysis, mediated by thrombin, of Chromozym TH by the peptides of the present invention was evaluated according to the literature (Stone, S. R., Hofsteenge, J., Biochemistry, 25, 4622, (1986).
°The hydrolysis inhibition constants of a chromogenic substrate ar

In data set [4] the test system is T3, human α-thrombin.
T3 construct: human a-thrombin
As to the kind of experiment: In vitro resistance of the peptides to enzyme hydrolysis by thrombin. Format: in vitro ADME. Particulars: isolated enzyme thrombin; human a-thrombin, Tris/HCl buffer pH 7.8, 37° C.; read-out: τt: halving time of the inhibitor concentration in the presence of thrombin alone. The procedure:
as §1, §5, §6, §2, §3, §4

Data set [5] concerns the target T2, thrombin. Particulars: non covalent 1:1 complex; read-out: Ki of hirudin binding to thrombin; cited from earlier work.

Like-named read-outs stand apart in the source and are kept apart here. Square brackets hold non-standard residues; d marks the D form. Peptide text beside a SMILES is read from it. 2Nal = N[C@@H](Cc1ccc2ccccc2c1)C(=O)O; hPhe = N[C@@H](CCc1ccccc1)C(=O)O; Cha = N[C@@H](CC1CCCCC1)C(=O)O; Chg = N[C@H](C(=O)O)C1CCCCC1; Aib = CC(C)(N)C(=O)O; βAla = NCCC(=O)O Where only a bound is given, the exact number is not on record here.

In the case of `CC[C@H](C)[C@H](N)C(=O)N[C@@H](CCCNC(=N)N)C(=O)N[C@@H](Cc1ccccc1)C(=O)N[C@H](C(=O)N[C@@H](CC(=O)O)C(=O)N[C@H](C)C(=O)NCC(=O)NCCC(=O)N1CCC[C@H]1C(=O)N[C@@H](CCC(=O)O)C(=O)N[C@@H](CO)C(=O)N[C@@H](Cc1c[nH]cn1)C(=O)N[C@@H](CCc1ccccc1)C(=O)NCC(=O)NCC(=O)N[C@@H](CC(=O)O)C(=O)N[C@@H](Cc1ccc(O)cc1)C(=O)N[C@@H](CCC(=O)O)C(=O)N[C@@H](CCC(=O)O)C(=O)N[C@H](C(=O)N1CCC[C@H]1C(=O)NC(C)(C)C(=O)NC(C)(C)C(=O)N[C@@H](Cc1ccc(OP(=O)(O)O)cc1)C(=O)N[C@@H](CC1CCCCC1)C(=O)N[C@H](CCC(=O)O)C(=O)O)[C@@H](C)CC)[C@@H](C)O` [Hirunorm-III] (HELM PEPTIDE1{I.R.F.T.D.[dA].G.[bAla].P.E.S.H.[O=C([C@H](CCc1ccccc1)N[*:1])[*:2]].G.G.D.Y.E.E.I.P.[Aib].[Aib].[O=C([C@H](Cc1ccc(OP(=O)(O)O)cc1)N[*:1])[*:2]].[Cha].[dE]}$$$$V2.0), the half-life at 1.21 µM in data set [1] came out at 8 h. Also, in data set [2], the “τt: halving time of the inhibitor concentration in the presence of thrombin alone” value is listed as greater than 480 min. Also, the Ki in data set [3] is 1 nM.

Turning to `CC[C@H](C)[C@H](N)C(=O)N[C@@H](CCCNC(=N)N)C(=O)N[C@@H](Cc1ccccc1)C(=O)N[C@H](C(=O)N[C@@H](CC(=O)O)C(=O)N[C@H](C)C(=O)NCC(=O)NCCC(=O)N1CCC[C@H]1C(=O)N[C@@H](CCC(=O)O)C(=O)N[C@@H](CO)C(=O)N[C@@H](Cc1c[nH]cn1)C(=O)N[C@@H](CCc1ccccc1)C(=O)NCC(=O)NCC(=O)N[C@@H](CC(=O)O)C(=O)N[C@@H](Cc1ccc(O)cc1)C(=O)N[C@@H](CCC(=O)O)C(=O)N[C@@H](CCC(=O)O)C(=O)N[C@H](C(=O)N1CCC[C@H]1C(=O)NC(C)(C)C(=O)NC(C)(C)C(=O)N[C@@H](Cc1ccc(O)cc1)C(=O)N[C@@H](CC1CCCCC1)C(=O)N[C@H](CCC(=O)O)C(=O)O)[C@@H](C)CC)[C@@H](C)O` [Hirunorm-II] (HELM PEPTIDE1{I.R.F.T.D.[dA].G.[bAla].P.E.S.H.[O=C([C@H](CCc1ccccc1)N[*:1])[*:2]].G.G.D.Y.E.E.I.P.[Aib].[Aib].Y.[Cha].[dE]}$$$$V2.0), in data set [1], the half-life at 1.21 µM was 8 h. In addition, the “τt: halving time of the inhibitor concentration in the presence of thrombin alone” value in data set [2] is greater than 480 min. Also, the Ki in data set [3] turned out to be 2.6 nM.

For the compound `CC[C@H](C)[C@H](NC(=O)[C@H](CCC(=O)O)NC(=O)[C@H](CCC(=O)O)NC(=O)[C@H](Cc1ccc(O)cc1)NC(=O)[C@H](CC(=O)O)NC(=O)CNC(=O)CNC(=O)[C@H](CCc1ccccc1)NC(=O)[C@H](Cc1c[nH]cn1)NC(=O)[C@H](CO)NC(=O)[C@H](CCC(=O)O)NC(=O)[C@@H]1CCCN1C(=O)CCNC(=O)CNC(=O)[C@@H](C)NC(=O)[C@H](CC(=O)O)NC(=O)[C@@H](NC(=O)[C@H](Cc1ccc2ccccc2c1)NC(=O)[C@H](CCCNC(=N)N)NC(=O)[C@@H](N)C1CCCCC1)[C@@H](C)O)C(=O)N1CCC[C@H]1C(=O)NC(C)(C)C(=O)NC(C)(C)C(=O)N[C@@H](Cc1ccc(O)cc1)C(=O)N[C@@H](CC1CCCCC1)C(=O)N[C@H](CCC(=O)O)C(=O)O` [Hirunorm-IV] (H-[Chg]R[2Nal]TD[dA]G[βAla]PESH[hPhe]GGDYEEIP[Aib][Aib]Y[Cha][dE]-OH), the Ki in data set [3] was 2.6 nM.

As to `CC[C@H](C)[C@H](N)C(=O)N[C@@H](CCCNC(=N)N)C(=O)N[C@@H](Cc1ccc(O)cc1)C(=O)N[C@H](C(=O)N[C@@H](CC(=O)O)C(=O)N[C@H](C)C(=O)NCCC(=O)NCCC(=O)N1CCC[C@H]1C(=O)N[C@@H](CCC(=O)O)C(=O)N[C@@H](CC(N)=O)C(=O)N[C@@H](Cc1c[nH]cn1)C(=O)N[C@@H](CC(N)=O)C(=O)N[C@@H](CC(N)=O)C(=O)NCC(=O)N[C@@H](CC(=O)O)C(=O)N[C@@H](Cc1ccccc1)C(=O)N[C@@H](CCC(=O)O)C(=O)N[C@@H](CCC(=O)O)C(=O)N[C@H](C(=O)N1CCC[C@H]1C(=O)NC(C)(C)C(=O)NC(C)(C)C(=O)N[C@@H](Cc1ccc(O)cc1)C(=O)N[C@@H](CC(C)C)C(=O)N[C@@H](CCC(=O)O)C(=O)O)[C@@H](C)CC)[C@@H](C)O` [Hirunorm-I] (HELM PEPTIDE1{I.R.Y.T.D.[dA].[bAla].[bAla].P.E.N.H.N.N.G.D.F.E.E.I.P.[Aib].[Aib].Y.L.E}$$$$V2.0), in data set [1], the half-life at 1.21 µM stood at 5 h. The half-life at 121.5 µM in data set [4] is greater than 8 h. Further, the Ki in data set [3] came out at 97 nM.

For `CC[C@H](C)[C@H](NC(=O)[C@H](CCC(=O)O)NC(=O)[C@H](CCC(=O)O)NC(=O)[C@H](Cc1ccc(O)cc1)NC(=O)[C@H](CC(=O)O)NC(=O)CNC(=O)CNC(=O)[C@H](CCc1ccccc1)NC(=O)[C@H](Cc1c[nH]cn1)NC(=O)[C@H](CO)NC(=O)[C@H](CCC(=O)O)NC(=O)[C@@H]1CCCN1C(=O)CCNC(=O)CNC(=O)[C@@H](C)NC(=O)[C@H](CC(=O)O)NC(=O)[C@@H](NC(=O)[C@H](Cc1ccc2ccccc2c1)NC(=O)[C@@H](NC(=O)[C@@H](N)C1CCCCC1)C(C)C)[C@@H](C)O)C(=O)N1CCC[C@H]1C(=O)NC(C)(C)C(=O)NC(C)(C)C(=O)N[C@@H](Cc1ccc(O)cc1)C(=O)N[C@@H](CC1CCCCC1)C(=O)N[C@H](CCC(=O)O)C(=O)O` [Hirunorm-V] (H-[Chg]V[2Nal]TD[dA]G[βAla]PESH[hPhe]GGDYEEIP[Aib][Aib]Y[Cha][dE]-OH), the Ki in data set [3] came to 1 nM.

Take Hirudin: the Ki in data set [5] was 0.063 nM.
